Experimental data reported in patent publication US20050074879A1, “Antisense oligonucleotide modulation of STAT3 expression” (priority 2000, published 2005).
Oligonucleotides are written 5' to 3', each unit as a sugar letter and its base; * is a phosphorothioate linkage, no mark a phosphodiester; rarer units and linkages stand in square brackets, end groups in braces. Plain capitals give the bases only. e = 2'-O-(2-methoxyethyl) (MOE); [5mC] = 5-methylcytosine; d = 2'-deoxy (DNA)

Columns and labels:
Type in all cases: cell-based
Mouse STAT3 mRNA = assay: Inhibition of mouse STAT3 mRNA expression in BCL1 cells (electroporation; RNase protection/Northern blot); design: % mRNA INHIBITION: dose or concentration left out as unconfirmed; conditions: BCL1 cells electroporated with oligonucleotide, RNA collected 24 hours later; for % mRNA EXPRESSION: control 100%
Procedure: The B lymphoma cell line, BCL1 was obtained from ATCC (Rockville, Md.). BCL1 cells were cultured in RPMI 1640 medium.
BCL1 cells (5×10^6 cells in PBS) were transfected with oligonucleotides by electroporation, at 200V, […]. using a BTX Electro Cell Manipulator 600 (Genetronics, San Diego, Calif.). For an initial screen, BCL1 were electroporated with […] oligonucleotide and RNA collected 24 hours later. Controls without oligonucleotide were subjected to the same electroporation conditions.
Total cellular RNA was isolated using the RNEASY7 kit (Qiagen, Santa Clarita, Calif.). RNAse protection experiments were conducted using RIBOQUANT™ kits and template sets according to the manufacturer's instructions (Pharmingen, San Diego, Calif.). Northern blotting was performed as described in Chiang, M-Y. et al. (J. Biol. Chem., 1991, 266, 18162-18171), using a rat cDNA probe prepared by Xho I/Sal I restriction digest of psvsport-1 plasmid (ATCC, Rockville, Md.). mRNA levels were quantitated using a PhosphorImager (Molecular Dynamics, Sunnyvale, Calif.).

Human STAT3 mRNA [1] = assay: Inhibition of human STAT3 mRNA levels in A549 cells, 75 nM, real-time PCR (Table 13); conditions: 75 nM oligonucleotide with LIPOFECTIN, real-time PCR PPS 199, percent inhibition relative to untreated control cells, average of 2 experiments
In short: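 A549 cells at 65–75% confluency were transfected in duplicate with 75 nM oligonucleotide plus […] Lipofectin for 4–7 h at 37° C and harvested 16–24 h later. STAT3 mRNA was quantified by real-time RT-PCR with primer-probe set PPS 199 and normalized to RiboGreen total RNA. Inhibition is relative to untreated controls.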

Human STAT3 mRNA [2] = assay: Human STAT3 mRNA dose response in T-24 cells, real-time PCR with PPS 199 (Table 18); conditions: 16 hours, − decrease, + increase relative to untreated control
Text: The transitional cell bladder carcinoma cell line T-24 was obtained from the American Type Culture Collection (ATCC) (Manassas, Va.). T-24 cells were routinely cultured in complete McCoy's 5A basal media (Gibco/Life Technologies, Gaithersburg, Md.) supplemented with 10% fetal calf serum (Gibco/Life Technologies, Gaithersburg, Md.), penicillin 100 units per mL, and streptomycin 100 micrograms per mL (Gibco/Life Technologies, Gaithersburg, Md.). Cells were routinely passaged by trypsinization and dilution when they reached 90% confluence. Cells were seeded into 96-well plates (Falcon-Primaria #3872) at a density of 7000 cells/well for use in RT-PCR analysis.
Control oligonucleotides used were ISIS 129695 ([…], SEQ ID NO: 391), ISIS 129694 ([…] SEQ ID NO: 392), ISIS 129690 ([…] SEQ ID NO: 393), ISIS 129686 ([…] SEQ ID NO: 394), ISIS 116847 ([…], SEQ ID NO: 395) and ISIS 113529 ([…] SEQ ID NO: 396). These are universal scrambled control oligonucleotides.
(§1) T-24 cells were treated with 18.75, 37.5, 75, or 150 nM of oligonucleotide mixed with 3 ug/mL LIPOFECTIN per 100 nM oligonucleotide as described by other examples herein. Untreated cells served as controls. Following 16 hours of treatment, RNA was prepared from cells for subsequent real-time PCR analysis.
Human STAT3 mRNA expression levels were quantitated by real-time PCR using primer probe set PPS 199 and gene target quantities were normalized using Ribogreen as described in other examples herein. A “−” or “+” designation indicates a decrease or increase of STAT 3 mRNA expression, respectively, relative to untreated control cells.

Human STAT3 mRNA [3] = assay: Human STAT3 mRNA dose response in T-24 cells, real-time PCR with PPS 2033 (Table 19); conditions: 16 hours, − decrease, + increase relative to untreated control
Procedure: The dose-response was repeated in T-24 cells and gene target quantities were measured using a different primer-probe set, called PPS 2033 herein. PPS 2033 comprises probes and primers to human STAT3 were designed to hybridize to a human STAT3 sequence, using published sequence information (incorporated herein as SEQ ID NO: XXX). For PPS 2033 the PCR primers were: forward primer: GAGGCCCGCCCAACA (SEQ ID NO: 397) reverse primer: […] (SEQ ID NO: 398) and the PCR probe was: FAM-CTGCCTAGATCGGC-TAMRA (SEQ ID NO: 399) where FAM is the fluorescent reporter dye and TAMRA is the quencher dye. Gene target quantities obtained by real time RT-PCR are normalized by quantifying total RNA using RiboGreen™ (Molecular Probes, Inc. Eugene, Oreg.). Control oligonucleotides used were ISIS 129695 (SEQ ID NO: 391), ISIS 129694 (SEQ ID NO: 392), ISIS 129690 (SEQ ID NO: 393), ISIS 129686 (SEQ ID NO: 394), ISIS 116847 (SEQ ID NO: 395) and ISIS 113529 (SEQ ID NO: 396).
as §1
Human STAT3 mRNA expression levels were quantitated by real-time PCR using primer probe set PPS 2033 and gene target quantities were normalized using Ribogreen as described in other examples herein. A “−” or “+” designation indicates a decrease or increase of STAT 3 mRNA expression, respectively, relative to untreated control cells.

| Substance | % mRNA INHIBITION (Mouse STAT3 mRNA) [%] | % mRNA EXPRESSION (Mouse STAT3 mRNA) [%] | also measured |
| --- | --- | --- | --- |
| 17136 (antisense eG*eT*eT*e[5mC]*e[5mC]*dA*dC*dT*dG*dA*dG*dC*dC*dA*dT*e[5mC]*e[5mC]*eT*eG*e[5mC]) [compound 17136] | 25 | 75 | – |
| 17137 (antisense eT*eT*e[5mC]*eA*eG*dG*dT*dA*dG*dC*dG*dT*dG*dT*dG*eT*e[5mC]*e[5mC]*eA*eG) [compound 17137] | 25 | 75 | – |
| 17138 (antisense eA*eT*eG*eT*eG*dA*dC*dT*dC*dT*dT*dT*dG*dC*dT*eG*eG*e[5mC]*eT*eG) [compound 17138] | 63 | 37 | – |
| 17139 (antisense e[5mC]*e[5mC]*eA*eA*eG*dA*dG*dA*dT*dT*dA*dT*dG*dA*dA*eA*e[5mC]*eA*e[5mC]*e[5mC]) [compound 17139] | 59 | 41 | – |
| 17140 (antisense eG*e[5mC]*eT*e[5mC]*e[5mC]*dA*dA*dC*dA*dT*dC*dT*dG*dC*dT*eG*e[5mC]*eT*eT*e[5mC]) [compound 17140] | 60 | 40 | – |
| 17141 (antisense eG*e[5mC]*eT*e[5mC]*eT*dT*dC*dA*dT*dC*dA*dG*dT*dC*dA*eG*eT*eG*eT*e[5mC]) [compound 17141] | 38 | 62 | – |
| 17142 (antisense eA*eT*e[5mC]*eT*eG*dA*dC*dA*dC*dC*dC*dT*dG*dA*dG*eT*eA*eG*eT*eT) [compound 17142] | 30 | 70 | – |
| 17143 (antisense eG*e[5mC]*e[5mC]*eA*eG*dA*dC*dC*dC*dA*dG*dA*dA*dG*dG*eA*eG*eA*eA*eG) [compound 17143] | 58 | 42 | – |
| 17144 (antisense e[5mC]*eG*e[5mC]*eT*e[5mC]*dC*dT*dT*dG*dC*dT*dG*dA*dT*dG*eA*eA*eA*e[5mC]*e[5mC]) [compound 17144] | 45 | 55 | – |
| 17145 (antisense eA*eA*e[5mC]*eT*eT*dG*dG*dT*dC*dT*dT*dC*dA*dG*dG*eT*eA*e[5mC]*eG*eG) [compound 17145] | 11 | 89 | – |
| 17146 (antisense eA*eT*e[5mC]*eA*eA*dT*dG*dA*dA*dT*dC*dT*dA*dA*dA*eG*eT*eG*e[5mC]*eG) [compound 17146] | 9 | 91 | – |
| 17147 (antisense eT*e[5mC]*eA*eG*e[5mC]*dA*dC*dC*dT*dT*dC*dA*dC*dC*dG*eT*eT*eA*eT*eT) [compound 17147] | 30 | 70 | – |
| 17149 (antisense eG*eG*eT*eT*eT*dC*dA*dG*dC*dT*dC*dC*dT*dC*dA*e[5mC]*eA*eT*eG*eG) [compound 17149] | 30 | 70 | – |
| 17150 (antisense eT*eA*eA*eA*eA*dA*dA*dA*dA*dA*dA*dA*dT*dC*dT*eG*eG*eA*eA*e[5mC]) [compound 17150] | 5 | 95 | – |
| 17151 (antisense eA*eA*eG*eA*eT*dA*dG*dC*dA*dG*dA*dA*dG*dT*dA*eG*eG*eA*eA*eA) [compound 17151] | 8 | 92 | – |
| 17153 (antisense eA*eT*e[5mC]*eA*e[5mC]*dC*dC*dA*dC*dA*dC*dT*dC*dA*dC*eT*e[5mC]*eA*eT*eT) [compound 17153] | 56 | 44 | – |
| 17154 (antisense e[5mC]*e[5mC]*eT*eT*eT*dG*dC*dC*dT*dC*dC*dC*dT*dT*dC*eT*eG*e[5mC]*eT*e[5mC]) [compound 17154] | 20 | 80 | – |
| 337303 (antisense eA*eG*e[5mC]*eT*eG*dA*dT*dA*dA*dT*dT*d[5mC]*dA*dA*d[5mC]*eT*e[5mC]*eA*eG*eG) [compound 337303] | – | – | % Inhib (inhibition of human STAT 3 mRNA levels) (Human STAT3 mRNA [1]): 85%; Percent change of STAT3 expression using PPS 199 (Human STAT3 mRNA [2]; 18.75 nM oligonucleotide): −44%; Percent change of STAT3 expression using PPS 199 (Human STAT3 mRNA [2]; 37.5 nM oligonucleotide): −61%; Percent change of STAT3 expression using PPS 199 (Human STAT3 mRNA [2]; 75 nM oligonucleotide): −69%; Percent change of STAT3 expression using PPS 199 (Human STAT3 mRNA [2]; 150 nM oligonucleotide): −72%; Percent change of STAT3 expression using PPS 2033 (Human STAT3 mRNA [3]; 18.75 nM oligonucleotide): −47%; Percent change of STAT3 expression using PPS 2033 (Human STAT3 mRNA [3]; 37.5 nM oligonucleotide): −59%; Percent change of STAT3 expression using PPS 2033 (Human STAT3 mRNA [3]; 75 nM oligonucleotide): −69%; Percent change of STAT3 expression using PPS 2033 (Human STAT3 mRNA [3]; 150 nM oligonucleotide): −71% |
| 337344 (antisense eA*eT*e[5mC]*e[5mC]*eA*dT*dG*dA*dT*d[5mC]*dT*dT*dA*dT*dA*eG*e[5mC]*e[5mC]*e[5mC]*eA) [compound 337344] | – | – | % Inhib (inhibition of human STAT 3 mRNA levels) (Human STAT3 mRNA [1]): 90%; Percent change of STAT3 expression using PPS 199 (Human STAT3 mRNA [2]; 18.75 nM oligonucleotide): −27%; Percent change of STAT3 expression using PPS 199 (Human STAT3 mRNA [2]; 37.5 nM oligonucleotide): −47%; Percent change of STAT3 expression using PPS 199 (Human STAT3 mRNA [2]; 75 nM oligonucleotide): −63%; Percent change of STAT3 expression using PPS 199 (Human STAT3 mRNA [2]; 150 nM oligonucleotide): −77%; Percent change of STAT3 expression using PPS 2033 (Human STAT3 mRNA [3]; 18.75 nM oligonucleotide): −17%; Percent change of STAT3 expression using PPS 2033 (Human STAT3 mRNA [3]; 37.5 nM oligonucleotide): −37%; Percent change of STAT3 expression using PPS 2033 (Human STAT3 mRNA [3]; 75 nM oligonucleotide): −60%; Percent change of STAT3 expression using PPS 2033 (Human STAT3 mRNA [3]; 150 nM oligonucleotide): −76% |
| 337384 (antisense eA*eT*eA*e[5mC]*eA*dG*dA*dA*dA*dG*dG*d[5mC]*dT*dA*dT*eG*e[5mC]*eT*eG*eA) [compound 337384] | – | – | % Inhib (inhibition of human STAT 3 mRNA levels) (Human STAT3 mRNA [1]): 89%; Percent change of STAT3 expression using PPS 199 (Human STAT3 mRNA [2]; 18.75 nM oligonucleotide): −40%; Percent change of STAT3 expression using PPS 199 (Human STAT3 mRNA [2]; 37.5 nM oligonucleotide): −55%; Percent change of STAT3 expression using PPS 199 (Human STAT3 mRNA [2]; 75 nM oligonucleotide): −71%; Percent change of STAT3 expression using PPS 199 (Human STAT3 mRNA [2]; 150 nM oligonucleotide): −80%; Percent change of STAT3 expression using PPS 2033 (Human STAT3 mRNA [3]; 18.75 nM oligonucleotide): −41%; Percent change of STAT3 expression using PPS 2033 (Human STAT3 mRNA [3]; 37.5 nM oligonucleotide): −59%; Percent change of STAT3 expression using PPS 2033 (Human STAT3 mRNA [3]; 75 nM oligonucleotide): −69%; Percent change of STAT3 expression using PPS 2033 (Human STAT3 mRNA [3]; 150 nM oligonucleotide): −80% |
